In the test the test system is Wnt activity (Sp5-Luc reporter, human Sp5 promoter with eight TCF/LEF binding sites) in SW480 colon carcinoma cells. The test is described as follows: Screening assay for Wnt activity: Sp5-Luc reporter gene assay in SW480 cells. In kind it is cell-based. As to conditions: for inhibition at 10 µM: read-out: percent inhibition at 10 μM (given for EC50 of >10 μM); for EC50: 10-point dose-response starting from 10 μM, overnight incubation. A digest of the protocol: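 Luminescence (BrightGlo) read after overnight 37 °C exposure of Sp5-Luc SW480 reporter cells, 4,000/well in 1% FBS, to compound dosed 1:3 over 10 points from 10 μM with 0.1% DMSO. Values normalized to DMSO-only cells, fitted with variable-slope four-parameter model; where EC50 exceeds 10 μM, % inhibition at 10 μM reported.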
A general note: A reporter such as luciferase makes a cellular process visible.

Our source for the inhibition and EC50 values is patent publication US10188634B2, “3-(3H-imidazo[4,5-C]pyridin-2-yl)-1 H-pyrazolo[4,3-B]pyridines and therapeutic uses thereof” (Samumed, LLC, priority 2015, dated 2019).

Bounds are passed on as bounds.

`Cc1cn(-c2cncc3[nH]c(-c4n[nH]c5ccc(-c6cncc(OCCN(C)C)c6)nc45)nc23)cn1` [Compound 599, N,N-Dimethyl-2-((5-(3-(7-(4-methyl-1H-imidazol-1-yl)-3H-imidazo[4,5-c]pyridin-2-yl)-1H-pyrazolo[4,3-b]pyridin-5-yl)pyridin-3-yl)oxy)ethan-1-amine]: the inhibition (usually the percentage by which the read-out fell short of the control) at 10 µM was 6.3% and the EC50 (usually the concentration needed to bring the measured effect to its halfway point) was over 10 µM.
As for `Oc1cncc(-c2ccc3[nH]nc(-c4nc5c(N6CCCCC6)cncc5[nH]4)c3n2)c1` [Compound 585, 5-(3-(7-(Piperidin-1-yl)-3H-imidazo[4,5-c]pyridin-2-yl)-1H-pyrazolo[4,3-b]pyridin-5-yl)pyridin-3-ol], the inhibition at 10 µM was 4.3% and the EC50 was over 10 µM.
Take `c1ncc(-c2ccc3[nH]nc(-c4nc5c(N6CCCCC6)cncc5[nH]4)c3n2)cc1OCCN1CCCC1` [Compound 582, 3-(7-(Piperidin-1-yl)-3H-imidazo[4,5-c]pyridin-2-yl)-5-(5-(2-(pyrrolidin-1-yl)ethoxy)pyridin-3-yl)-1H-pyrazolo[4,3-b]pyridine]: the inhibition at 10 µM was determined as 6.6% and the half-maximal effective concentration (EC50) was over 10 µM.
`Fc1ccccc1-c1cncc2[nH]c(-c3n[nH]c4ccc(-c5ccccn5)nc34)nc12` [Compound 84, 3-(7-(2-Fluorophenyl)-3H-imidazo[4,5-c]pyridin-2-yl)-5-(pyridin-2-yl)-1H-pyrazolo[4,3-b]pyridine] returned an EC50 of 0.644 µM.
`c1cc(-c2cncc3[nH]c(-c4n[nH]c5ccc(-c6cncc(CNCC7CCCC7)c6)nc45)nc23)co1` [Compound 305, 1-Cyclopentyl-N-((5-(3-(7-(furan-3-yl)-3H-imidazo[4,5-c]pyridin-2-yl)-1H-pyrazolo[4,3-b]pyridin-5-yl)pyridin-3-yl)methyl)methanamine] gave a half-maximal effective concentration (EC50) of 8.61 µM.
In the case of `O=C(Nc1cncc(-c2ccc3[nH]nc(-c4nc5c(-c6cccc(F)c6)cncc5[nH]4)c3n2)c1)C1CC1` [Compound 20, N-(5-(3-(7-(3-Fluorophenyl)-3H-imidazo[4,5-c]pyridin-2-yl)-1H-pyrazolo[4,3-b]pyridin-5-yl)pyridin-3-yl)cyclopropanecarboxamide], the inhibition at 10 µM is 7% and the EC50 was over 10 µM.
`Cc1ncc(-c2ccc3[nH]nc(-c4nc5c(-c6ccoc6)cncc5[nH]4)c3n2)n1C` [Compound 641, 5-(1,2-Dimethyl-1H-imidazol-5-yl)-3-(7-(furan-3-yl)-3H-imidazo[4,5-c]pyridin-2-yl)-1H-pyrazolo[4,3-b]pyridine] yielded an EC50 of 0.911 µM.
In the case of `CN1CCN(c2cncc3[nH]c(-c4n[nH]c5ccc(-c6cnccn6)nc45)nc23)CC1` [Compound 620, 3-(7-(4-Methylpiperazin-1-yl)-3H-imidazo[4,5-c]pyridin-2-yl)-5-(pyrazin-2-yl)-1H-pyrazolo[4,3-b]pyridine], the inhibition at 10 µM worked out at 5.8% and the EC50 is over 10 µM.
Take `Cc1cn(-c2cncc3[nH]c(-c4n[nH]c5ccc(C6=CCNCC6)nc45)nc23)cn1` [Compound 590, 3-(7-(4-Methyl-1H-imidazol-1-yl)-3H-imidazo[4,5-c]pyridin-2-yl)-5-(1,2,3,6-tetrahydropyridin-4-yl)-1H-pyrazolo[4,3-b]pyridine]: the inhibition at 10 µM worked out at 6.8% and the EC50 was over 10 µM.
As for `O=C(CC1CCNCC1)Nc1cncc(-c2ccc3[nH]nc(-c4nc5c(-c6ccsc6)cncc5[nH]4)c3n2)c1` [Compound 629, 2-(Piperidin-4-yl)-N-(5-(3-(7-(thiophen-3-yl)-3H-imidazo[4,5-c]pyridin-2-yl)-1H-pyrazolo[4,3-b]pyridin-5-yl)pyridin-3-yl)acetamide], the inhibition at 10 µM was 30.6% and the EC50 was over 10 µM.
For the molecule `O=C(CC1CCNCC1)Nc1cncc(-c2ccc3[nH]nc(-c4nc5c(-c6ccccn6)cncc5[nH]4)c3n2)c1` [Compound 565, 2-(Piperidin-4-yl)-N-(5-(3-(7-(pyridin-2-yl)-3H-imidazo[4,5-c]pyridin-2-yl)-1H-pyrazolo[4,3-b]pyridin-5-yl)pyridin-3-yl)acetamide], the inhibition at 10 µM was 44.2% and the EC50 was over 10 µM.
